Reference: US4774250A, “Composition and method for treating differentiated carcinoma or melanoma cells with thiapyrylium dyes” (Dana Farber Cancer Institute, priority 1987, dated 1988)
Like-named read-outs stand apart in the source and are kept apart here.

Columns and labels:
[1] = tested on: CX-1 (human colon carcinoma); test: Clonogenic in vitro study, inhibition of cell colony formation, CX-1; format: cell-based; conditions: for S (selectivity value): comparative examples; for S (selectivity value) / Selectivity: CV-1 IC50 divided by CX-1 IC50; for IC50: Homo sapiens, Colon carcinoma cell, read-out: CX-1 (colon carcinoma cells IC50 value)
Protocol: This IC50 value is compared for both the CX-1 and CV-1. That is, the CV-1 value is divided by the value for CX-1. If the value is 10 μg/ml for CV-1, and […] for CX-1, then the dye is 10 times as effective in killing off the colon carcinoma cells, compared to the monkey epithelial cells. This is expressed as a selectivity "S" of 10. That is, in order to inhibit 50% of the normal cells, the drug requires ten times the concentration needed for inhibiting 50% of the cancer cells.

[2] = tested on: human ovarian carcinoma line OVCAR-3; test: Ovarian carcinoma (OVCAR-3) using nude mice protocol (survival); format: in vivo, human ovarian carcinoma cells in nude mice; conditions: OVCAR-3, female nude mice, 5 mg/kg IP daily for five days, then twice weekly
Source text: (§1) FIGS. 1-6 are survival plots of cancer-bearing mice treated with the dyes of this invention, compared to a control group of such mice that were untreated. In these plots, "% survival" means the % of the total group (treated "T" or control "C") still surviving on the day in question. The 50% data point is selected for the T/C calculation, as being the point that is statistically meaningful.
(§2) Effectiveness against human cancer can be inferred by tests in the nude mouse-human xenograft model, hereinafter "nude mice protocol". […] 899-903, especially p. 889 (April 1985).
(§3) Nude mice, that is, those deficient in thymic functions, bred and maintained in pathogen-free conditions [See J. Natl. Cancer Inst. 51: 615-619 (1973)] were used in in vivo experiments. For each experiment, nude mice from the same litter and of the same sex which were over 3 months old and weighed at least 25 g were injected or implanted with cancer cells.
Ex. 1 and 2 were repeated, except they were administered to female nude mice xenografted with human ovarian carcinoma line OVCAR-3. Ten mice were selected for treatment with the thiapyrylium, in an amount of 5 mg/kg administered IP 1 day after the cancer cells were injected. This was repeated as follows: daily for five days followed by twice weekly (usually on Tuesday and Thursday). Ten mice were used as the control group and were injected with 0.25 ml of 5% dextrose in water.

[3] = tested on: MB49 tumor cells; test: Treatment of mouse bladder carcinoma (MB49) using thiapyrylium dyes administered IP (survival); format: in vivo; conditions: MB49, male BDF1 mice, 2 mg/kg IP daily for 5 days, then twice a week
Source text: as §1
MB49 tumor cells, that is, mouse carcinoma cells induced by the carcinogen 7,12-dimethyl benz[a]anthracene, were injected intraperitoneally into normal male BDF1 mice (2×10^6 /mouse). Each drug treated group and control group had ten mice. Except for the control group, one of the thiapyrylium dyes of Ex. 1 and Ex. 2 was administered intraperitoneally starting the following day in the following manner: 2 mg/kg daily for 5 days followed by 2 mg/kg twice a week. The control group of 10 mice was treated with 0.25 ml of 5% dextrose in water and was the same control group used for both Ex. 5-6. The survival rate was calculated as in the previous examples. The results were that the dye of Ex. 1 produced a T/C of 227%, and the dye of Ex. 2 produced a T/C of 263%, as shown further in FIGS. 5-6.

[4] = tested on: CV-1 (normal monkey kidney epithelial cells); test: Clonogenic in vitro study, inhibition of cell colony formation, CV-1; format: cell-based; conditions: for IC50: Primates, Epithelial cell
Source text: As noted above, one of the advantages of the invention is that the thiapyryliums described herein selectively attack the cancer cells as opposed to normal cells. Although knowledge of the mechanism is not essential to the practice of the invention, it is believed this occurs through the preferential inhibition of ATP synthesis in the mitochondria of the cancer cells. Such selectivity is further shown in clonogenic in vitro studies carried out in conventional fashion. That is, cell cultures of CX-1 (human colon carcinoma) and CV-1 (normal monkey kidney epithelial cells) are prepared and treated at various concentrations, in the conventional manner, and the concentration of the dye that inhibits 50% of the cell colonies formation is denoted as IC50. This IC50 value is compared for both the CX-1 and CV-1. That is, the CV-1 value is divided by the value for CX-1. If the value is 10 μg/ml for CV-1, and […] for CX-1, then the dye is 10 times as effective in killing off the colon carcinoma cells, compared to the monkey epithelial cells. This is expressed as a selectivity "S" of 10. That is, in order to inhibit 50% of the normal cells, the drug requires ten times the concentration needed for inhibiting 50% of the cancer cells.
("Retest" in this table refers to a repeat of the clonogenic test on either an entirely different preparation of the compound, or on a different recrystallization of the same preparation. The slight variance in selectivity can be accounted for, it is speculated, by a different moisture content in the preparation or crystallization of the compounds.)

[5] = tested on: human melanoma cell line, LOX; test: Melanoma test using nude mice protocol (LOX xenograft survival); format: in vivo, human melanoma cells in athymic Swiss nu/nu mice; conditions: male nude mice, 5 mg/kg IP daily for five days, then three times per week
Source text: as §1, §2, §3
A human melanoma cell line, LOX, was used that grows rapidly when inoculated into the peritoneal cavity of athymic mice. […] Cells were then scored for viability with trypan blue and 5 million viable cells made up in 0.1 ml of Dulbecco modified Eagles' medium (DME) were injected intraperitoneally into a group of male athymic Swiss nu/nu mice. […]

[6] = tested on: stomach cancer; conditions: stomach cancer in Japan, Antibiotics Chemother., Vol. 24, pages 149-159 (1978); cited from earlier work
[7] = clonogenic, CX-1 human colon carcinoma
[8] = retest: different preparation or recrystallization, CX-1
[9] = clonogenic, CV-1 normal monkey kidney epithelial cells
[10] = retest: different preparation or recrystallization, CV-1

For `Cc1cc(N(CCCl)CCCl)ccc1-c1cc(-c2ccccc2)[s+]c(-c2ccccc2)c1` [compound 7, reference compound], the “S (selectivity value)” value [1] was < 7.5.
With `CN(C)c1ccc(-c2cc(-c3ccccc3)[s+]c(-c3ccc(N(C)C)cc3)c2)cc1` [compound 6, reference compound] the “S (selectivity value)” value [1] was 10.0.
In the case of `c1ccc(CN(Cc2ccccc2)c2ccc(-c3cc(-c4ccccc4)[s+]c(-c4ccccc4)c3)cc2)cc1` [compound 8, reference compound], the “S (selectivity value)” value [1] is reported as < 7.5.
In the case of `CN(C)c1ccc(-c2cc(-c3cccs3)[s+]c(-c3cccs3)c2)cc1` [compound 3, 2,6-Bis(2-thienyl)-4-(4-dimethylaminophenyl)thiapyrylium perchlorate, reference compound], the “S (selectivity value)” value [1] is reported as 1.0.
With `ClCCN(CCCl)c1ccc(-c2cc(-c3ccccc3)[s+]c(-c3ccccc3)c2)cc1` [compound 9, reference compound] the “S (selectivity value)” value [1] was < 5.0.
For `CN(C)c1ccc(-c2cc(-c3ccccc3)[s+]c(-c3ccccn3)c2)cc1` [T-2, 4-(4-dimethylaminophenyl)-2-phenyl-6-(2-pyridyl)thiapyrylium chloride], the Selectivity [1] was 167, the IC50 [1, 7] was 0.018 µg/mL and the “CX-1 (colon carcinoma cells IC50 value)” value [1, 8] was 0.005 µg/mL. The Selectivity ([1]; retest) was 60, the T/C [2] was 340% and the T/C [3] was 227%. For the same compound, the IC50 [4, 9] was 3 µg/mL and the “T/C (test drug versus control, calculated based on 50% survival day)” value [5] was 228%.
`CN(C)c1ccc(-c2cc(-c3ccccn3)[s+]c(-c3cccs3)c2)cc1` [T-1, 4-(4-dimethylaminophenyl)-2-(2-pyridyl)-6-(2-thienyl)thiapyrylium chloride] gave a Selectivity [1] of 200, an IC50 [1, 7] of 0.01 µg/mL and a T/C [2] of 321%. The T/C [3] was 263%, the “CV-1 (normal cells IC50 value)” value [4, 9] was 2.0 µg/mL and the “T/C (test drug versus control, calculated based on 50% survival day)” value [5] was 200%.
With `CN(C)c1ccc(-c2cc(-c3ccccn3)[s+]c(-c3cccs3)c2)cc1` [T-4, 4-(4-dimethylaminophenyl)-2-(2-pyridyl)-6-(2-thienyl)thiapyrylium perchlorate] the Selectivity [1] was 333, the IC50 [1, 8] was 0.015 µg/mL and the Selectivity ([1]; retest) was 100. The IC50 [4, 10] was 1.5 µg/mL and the “CV-1 (normal cells IC50 value)” value [4, 9] was 5.0 µg/mL.
With `CN(C)c1ccc(-c2cc(-c3ccccc3)[s+]c(-c3ccccc3)c2)cc1` [compound 2, reference compound] the “S (selectivity value)” value [1] was 5.0.
For `CN(C)c1ccc(-c2cc(-c3ccco3)[s+]c(-c3cccs3)c2)cc1` [compound 5, 4-(4-Dimethylaminophenyl)-2-(2-furyl)-6-(2-thienyl)thiapyrylium perchlorate, reference compound], the “S (selectivity value)” value [1] was 13.5.
For `CN(C)c1ccc(-c2cc(-c3ccccc3)[s+]c(-c3ccccn3)c2)cc1` [T-3, 4-(4-dimethylaminophenyl)-2-phenyl-6-(2-pyridyl)thiapyrylium perchlorate], the Selectivity [1] was 167, the “CX-1 (colon carcinoma cells IC50 value)” value [1, 7] was 0.015 µg/mL and the “CX-1 (colon carcinoma cells IC50 value)” value [1, 8] was 0.025 µg/mL. For the same compound, the Selectivity ([1]; retest) was 100, the “CV-1 (normal cells IC50 value)” value [4, 9] was 2.5 µg/mL and the “CV-1 (normal cells IC50 value)” value [4, 10] was 2.5 µg/mL.
For `COc1cccc2c1C(=O)c1c(O)c3c(c(O)c1C2=O)C[C@@](O)(C(=O)CO)C[C@@H]3O[C@H]1C[C@H](N)[C@H](O)[C@H](C)O1` [Adriamycin], the effective response rate [6] is listed as 14.5%.
For `CN(C)c1ccc(-c2cc(-c3ccncc3)[s+]c(-c3cccs3)c2)cc1` [compound 4, 4-(4-Dimethylaminophenyl)-2-(4-pyridyl)-6-(2-thienyl)thiapyrylium perchlorate, reference compound], the “S (selectivity value)” value [1] was 3.3.
